Data reported in ChEMBL document CHEMBL4602682, “Ikoamide, an Antimalarial Lipopeptide from an Okeania sp. Marine Cyanobacterium” (J Nat Prod, 2020).

Legend:
[1] = test system: HeLa; experiment: Cytotoxicity against human HeLa cells at 10 uM incubated for 72 hrs by MTT assay; format: cell-based
[2] = test system: HL-60; experiment: Cytotoxicity against human HL60 cells at 10 uM incubated for 72 hrs by MTT assay; format: cell-based; conditions: hl-60, 72 h
[3] = test system: Plasmodium falciparum; experiment: Antiplasmodial activity against asexual erythrocytic stage of Plasmodium falciparum 3D7 assessed as reduction in parasite growth after 72 hrs by LDH assay; format: functional, organism-based; conditions: 3D7, 72 h
[4] = test system: HL-60; experiment: Cytotoxicity against human HL60 cells incubated for 72 hrs by MTT assay; format: cell-based; conditions: HL-60, 72 h

| SMILES | Activity [1] | Activity [2] | IC50 [3] [nM] | IC50 [4] [nM] |
| --- | --- | --- | --- | --- |
| CCC[C@H](C[C@@H](CC(=O)N(C)[C@@H](C(=O)N[C@H](CO)C(=O)N[C@H](CC(C)C)C(=O)N(C)[C@@H](CC(C)C)C(=O)N[C@H](C(=O)N(C)[C@H](C(=O)N(C)[C@@H](CCC(N)=O)C(=O)N(C)[C@@H](Cc1ccc(OC)cc1)C(=O)OC)[C@@H](C)CC)[C@@H](C)O)[C@@H](C)CC)OC)OC | Non-Toxic | Non-Toxic | 140 |  |
| COc1cccc2c1C(=O)c1c(O)c3c(c(O)c1C2=O)C[C@@](O)(C(=O)CO)C[C@@H]3O[C@H]1C[C@H](N)[C@H](O)[C@H](C)O1 [DOXORUBICIN] |  |  |  | 46 |
